Data on 6 compounds can be found in patent publication US6369228B2, “Aroyl aminoacyl pyrroles for use in the treatment of neuropathic pain” (Ortho-McNeil Pharmaceutical, Inc., priority 1999, dated 2002).

For data set [1] the following is noted: literature pilot study; cited from earlier work.
The conditions of data set [2]: cited patent; cited from earlier work.

What is called melting point is the temperature of the solid-liquid transition.

Molecules are shown by their SMILES. Structures can show the parent of a compound that is named as a salt.

In the case of `Cn1cc(C(=O)c2ccc(Cl)cc2)cc1C(=O)CN1CCCC1` (as salt: hydrochloride), the melting point was 265 to 267 °C.
`Cn1cc(C(=O)CN)cc1C(=O)c1ccc(Cl)cc1` (as salt: hydrochloride): the melting point is 290 °C (dec.).
Same read-out and setting: to `Cn1cc(C(=O)c2ccc(Cl)cc2)cc1C(=O)CN1CCOCC1` (as salt: hydrochloride) [13-1, 1-[4-(4-Chlorobenzoyl)-1-methyl-1H-pyrrol-2-yl]-2-(1-morpholino)-ethanone hydrochloride] belongs 264 to 267 °C; to `Cn1cc(C(=O)c2ccc(Cl)cc2)cc1C(=O)CN1CCCCC1` [Example 12, 1-[4-(4-Chlorobenzoyl)-1-methyl-1H-pyrrol-2-yl]-2-(1-piperidinyl)-ethanone], 129 to 130 °C.
With `NCC1(CC(=O)O)CCCCC1` [Gabapentin], in data set [1], the “effect on brush-induced and cold allodynia” value was “significantly effective”; the “effect on detection and pain thresholds to static mechanical and hot stimuli” value is on record as “no effect”; the reducing paroxysmal pain entry is given as “particularly effective”; the “relief of ongoing spontaneous pain” value is “moderate and statistically significant relief”.
`CC1(C)O[C@@H]2[C@@H](CO[C@@]3(COS(N)(=O)=O)OC(C)(C)O[C@@H]23)O1` [topiramate]: the “efficacy in an animal model of neuropathic pain” value in data set [2] is on record as “evidence of pharmacological activity”.
